From ChEMBL document CHEMBL5584360, “Undescribed Amaryllidaceae Alkaloids from Zephyranthes citrina and Their Cytotoxicity” (J Nat Prod, 2024)
In brackets after ≈: the same amount, converted by molar mass.

Tests used:
A549 = test: Cytotoxicity against human A549 cells measured after 72 hrs by MTT assay; type: functional, cell-based; conditions: A549, 72 h
KB = test: Cytotoxicity against human KB cells; type: functional; conditions: read-out: ED50 (the source's name)
[1] = Selectivity index, ratio of cytotoxic effect against human MRC5 cells to cytotoxic effect against human Jurkat cells; type: toxicity, cell-based; conditions: MRC5 cells versus Jurkat cells, read-out: Selectivity Index
[2] = Selectivity index, ratio of cytotoxic effect against human MRC5 cells to cytotoxic effect against human MOLT-4 cells
[3] = Selectivity index, ratio of cytotoxic effect against human MRC5 cells to cytotoxic effect against human A549 cells; type: toxicity, cell-based; conditions: MRC5 cells versus A549 cells, read-out: Selectivity Index
[4] = Selectivity index, ratio of cytotoxic effect against human MRC5 cells to cytotoxic effect against human HT-29 cells; type: toxicity, cell-based; conditions: MRC5 cells versus HT-29 cells, read-out: Selectivity Index
[5] = Selectivity index, ratio of cytotoxic effect against human MRC5 cells to cytotoxic effect against human PANC-1 cells
[6] = Selectivity index, ratio of cytotoxic effect against human MRC5 cells to cytotoxic effect against human A2780 cells; type: toxicity, cell-based; conditions: MRC5 cells versus A2780 cells, read-out: Selectivity Index
[7] = Selectivity index, ratio of cytotoxic effect against human MRC5 cells to cytotoxic effect against human HeLa cells; type: toxicity, cell-based; conditions: MRC5 cells versus HeLa cells, read-out: Selectivity Index
[8] = Selectivity index, ratio of cytotoxic effect against human MRC5 cells to cytotoxic effect against human MCF7 cells; type: toxicity, cell-based; conditions: MRC5 cells versus MCF7 cells, read-out: Selectivity Index
[9] = Selectivity index, ratio of cytotoxic effect against human MRC5 cells to cytotoxic effect against human SAOS-2 cells
Acetylcholinesterase = Acetylcholinesterase (Homo sapiens, UniProt P22303); test: Inhibition of human AChE by Ellman's method
Cholinesterase = Cholinesterase (Homo sapiens, UniProt P06276); test: Inhibition of human BChE by Ellman's method
Sequence of Cholinesterase (P06276 whole entry): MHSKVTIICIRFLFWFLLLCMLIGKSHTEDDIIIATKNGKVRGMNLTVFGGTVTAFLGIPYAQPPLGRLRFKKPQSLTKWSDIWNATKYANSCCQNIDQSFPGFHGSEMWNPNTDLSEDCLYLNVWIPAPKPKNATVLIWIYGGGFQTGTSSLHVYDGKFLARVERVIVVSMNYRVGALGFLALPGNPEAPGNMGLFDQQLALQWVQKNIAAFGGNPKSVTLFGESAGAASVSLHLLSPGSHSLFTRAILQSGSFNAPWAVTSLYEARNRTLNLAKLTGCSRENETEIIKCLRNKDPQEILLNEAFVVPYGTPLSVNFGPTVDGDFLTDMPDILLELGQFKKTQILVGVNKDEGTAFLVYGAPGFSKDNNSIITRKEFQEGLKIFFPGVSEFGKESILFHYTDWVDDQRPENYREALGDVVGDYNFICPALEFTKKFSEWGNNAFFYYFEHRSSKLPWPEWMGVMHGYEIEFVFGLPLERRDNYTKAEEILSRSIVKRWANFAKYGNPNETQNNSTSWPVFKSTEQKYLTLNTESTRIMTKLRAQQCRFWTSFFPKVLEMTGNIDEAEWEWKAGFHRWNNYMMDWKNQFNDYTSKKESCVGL

Sequence of Acetylcholinesterase (P22303 whole entry): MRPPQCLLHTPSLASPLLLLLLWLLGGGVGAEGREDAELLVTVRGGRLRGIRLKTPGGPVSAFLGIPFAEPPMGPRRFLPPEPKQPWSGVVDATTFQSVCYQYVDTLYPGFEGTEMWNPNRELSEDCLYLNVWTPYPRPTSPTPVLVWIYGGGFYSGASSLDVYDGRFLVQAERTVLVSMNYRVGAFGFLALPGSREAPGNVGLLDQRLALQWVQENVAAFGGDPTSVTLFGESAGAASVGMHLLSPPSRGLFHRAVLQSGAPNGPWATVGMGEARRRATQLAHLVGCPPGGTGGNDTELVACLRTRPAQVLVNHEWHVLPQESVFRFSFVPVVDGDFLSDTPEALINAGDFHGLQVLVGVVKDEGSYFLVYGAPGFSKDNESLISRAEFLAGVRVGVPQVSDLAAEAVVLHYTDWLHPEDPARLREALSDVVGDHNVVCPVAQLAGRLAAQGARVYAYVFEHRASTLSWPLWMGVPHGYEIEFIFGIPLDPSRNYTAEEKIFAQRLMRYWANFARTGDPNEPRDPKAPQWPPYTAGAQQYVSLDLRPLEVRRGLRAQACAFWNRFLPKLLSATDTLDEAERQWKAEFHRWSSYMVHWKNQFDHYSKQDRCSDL

SMILES | IC50 (A549) [mg/L] | EC50 (KB) [mg/L] | selectivity ratio [1] | Selectivity Index [2] | selectivity ratio [3] | selectivity ratio [4] | Selectivity Index [5] | selectivity ratio [6] | selectivity ratio [7] | selectivity ratio [8] | Selectivity Index [9] | IC50 (Acetylcholinesterase) [µM] | IC50 (Cholinesterase) [µM]
CO[C@H]1C=C[C@@]23c4cc5c(cc4CN(C[C@@H]2O)[C@H]3C1)OCO5 | 15.9 (≈ 52.8 µM) |  |  |  |  |  |  |  |  |  |  |  | 
COc1cc2c(cc1OC)[C@@]13C=CC(O)C[C@@H]1N(CC3)C2 (stereo partly specified) |  | 0.51 (≈ 1.77 µM) |  |  |  |  |  |  |  |  |  |  | 
O[C@H]1[C@H]2c3cc4c(cc3CN3CCC(=C[C@@H]1O)[C@H]23)OCO4 [LYCORINE] |  |  | 0.62 | 0.62 | 0.62 | 0.62 | 0.62 | 0.62 | 0.62 | 0.62 | 0.62 |  | 
CO[C@@H]1C=C[C@@]23c4cc5c(cc4[C@H](O)N(C[C@@H]2O)[C@H]3C1)OCO5 |  |  | 0.14 | 0.14 | 0.14 | 0.14 | 0.14 | 0.14 | 0.14 | 0.14 | 0.14 |  | 
CO[C@@H]1C=C[C@@]23c4cc5c(cc4CN(C[C@@H]2O)[C@H]3C1)OCO5 [(+)-HAEMANTHAMINE] |  |  | 0.05 | 0.05 | 0.05 | 0.05 | 0.05 | 0.05 | 0.05 | 0.05 | 0.05 |  | 
COc1cc(-c2cccc3c2N(C)CC3)c(CN2CC[C@@]34C=C[C@H](O)C[C@@H]3Oc3c(OC)ccc(c34)C2)c(OC)c1OC |  |  |  |  |  |  |  |  |  |  |  | 18.7 | 1.34
